Assay results as given in patent US20070249607A1, “NK-1 AND SEROTONIN TRANSPORTER INHIBITORS” (Bristol-Myers Squibb Company, priority 2006, published 2007).
Where two headings read alike, the source gives them in different places.

Tests used:
[1] = target: T1, neurokinin-1 (NK-1) receptor (Homo sapiens, UniProt P25103); test: NK-1 Binding assay ([125I] Substance P competition, U373 cell membranes); details: U373 membranes, [125I] Substance P displacement, read-out: NK-1 IC50
T1 construct: a human glioblastoma-astrocytoma cell line that endogenously expresses the neurokinin-1 (NK-1) receptor; endogenous in cells; host or cells: U373 human glioblastoma-astrocytoma cells (membranes)
Description: NK-1 Binding assay. U373 cells, a human glioblastoma-astrocytoma cell line that endogenously expresses the neurokinin-1 (NK-1) receptor, were grown in a monolayer culture at 37° C. in 5% CO2 and fed with Minimum Essential Medium (MEM) supplemented with 10% fetal bovine serum. Membranes were prepared as follows: Cells were washed twice with ice-cold phosphate-buffered saline (pH 7.4) and then incubated for 5-10 minutes with ice-cold 10 mM Tris buffer (pH 7.4) containing 5 mM EDTA. Cells were removed from plates, homogenized, and centrifuged at 32,000×g for 20 minutes. The resulting supernatant was discarded, and the pellet resuspended by homogenization in 50 mM Tris buffer (pH 7.4) containing 1 mM EDTA and centrifuged at 32,000×g for 20 minutes. The resulting supernatant was discarded, and the pellet resuspended by homogenization in NK-1 binding assay buffer (50 mM Tris-HCL (pH 7.4), 3 mM MnCl2, 200 μg/ml BSA, 5 μg/ml chymostatin, 40 μg/ml bacitracin and 4 μg/ml leupeptin).
On the day of an experiment the membrane preparation was thawed, homogenized and diluted with NK-1 binding assay buffer to the appropriate concentration. […] Substance P, at a concentration of […], and concentrations of drugs ranging from 10000 to 0.01 nM. Samples were incubated for 30 min at 20° C. then filtered through GF/B glass fiber filters (pretreated with 1% polyethyleneimine and 0.3% Triton X-100) using a Brandel cell harvester. The filters were then washed with 10 ml ice cold 50 mM Tris-HCL (pH 7.4) containing 3 mM MgCl2. […] The amount of radioligand bound in the presence and absence of competitor was analyzed by plotting (-)log drug concentration versus the amount of radioligand specifically bound. The midpoint of the displacement curve (IC50, nM), signifies the potency.

[2] = target: T2, human serotonin transporters (Homo sapiens, UniProt P31645); test: Serotonin transporter binding assay ([3H]-citalopram competition, HEK-hSERT cell membranes)
T2 construct: expressed in transfected cells
Description: Serotonin transporter binding assay. HEK-293 cells that stably express human serotonin transporters (HEK-hSERT cells) were grown at 37° C. in 5% CO2 as a monolayer in medium consisting of EMEM supplemented with 10% fetal bovine serum and G418 sulfate (500 μg/ml). To prepare membranes for radioligand binding experiments, cells were rinsed twice with phosphate-buffered saline (138 mM NaCl, 4.1 mM KCl, 5.1 mM Na2PO4, 1.5 mM KH2PO4, 11.1 mM glucose, pH 7.4). Cells were transferred from plates to polypropylene tubes (16×100 mm), centrifuged at 1,200×g for 5 min and were frozen at −80° C. until assay. Following centrifugation, pellets were resuspended by homogenization in buffer consisting of 50 mM Tris (pH 7.7 at 25° C.), 120 mM NaCl and 5 mM KCl and then centrifuged at 32,000×g for 10 min. Following centrifugation, supernatants were discarded and pellets were resuspended in buffer consisting of 50 mM Tris (pH 7.4 at 25° C.), 150 mM NaCl and 5 mM KCl. Membrane homogenates (200 μl/plate) were incubated with 1 nM [^3H]-citalopram (specific activity=85 Ci/mmol) and increasing concentrations of test compounds for 1 hr at 25° C. in a total volume of 250 μl. The assay buffer consisted of 50 mM Tris (pH 7.4 at 25° C.), 120 mM NaCl and 5 mM KCl (pH 7.4 with conc. HCl). Plates were incubated for 1 hr at 25° C., then filtered through 0.5% PEI treated Whatman GF/B filters using a Brandel cell harvester. Filters were washed three times with 3 ml of ice-cold tris wash buffer. Non-specific binding was defined with 10 μM fluoxetine. Amount of radioligand bound in the presence and absence of competitor was analyzed by plotting (-)log drug concentration versus the amount of radioligand specifically bound. The midpoint of the displacement curve (IC50, nM), signifies the potency. Ki values can be calculated using the method of Cheng and Prusoff (Cheng and Prusoff, BiochemicalPharmacology, Vol 22, pp. 3099-3108, Pergamon Press (1973)).

[3] = Table 1, HEK-hSERT membranes, [3H]-citalopram displacement, read-out: SERT IC50
[4] = Table 2, HEK-hSERT membranes, [3H]-citalopram displacement, read-out: SERT IC50

T2 sequence (P31645 whole entry): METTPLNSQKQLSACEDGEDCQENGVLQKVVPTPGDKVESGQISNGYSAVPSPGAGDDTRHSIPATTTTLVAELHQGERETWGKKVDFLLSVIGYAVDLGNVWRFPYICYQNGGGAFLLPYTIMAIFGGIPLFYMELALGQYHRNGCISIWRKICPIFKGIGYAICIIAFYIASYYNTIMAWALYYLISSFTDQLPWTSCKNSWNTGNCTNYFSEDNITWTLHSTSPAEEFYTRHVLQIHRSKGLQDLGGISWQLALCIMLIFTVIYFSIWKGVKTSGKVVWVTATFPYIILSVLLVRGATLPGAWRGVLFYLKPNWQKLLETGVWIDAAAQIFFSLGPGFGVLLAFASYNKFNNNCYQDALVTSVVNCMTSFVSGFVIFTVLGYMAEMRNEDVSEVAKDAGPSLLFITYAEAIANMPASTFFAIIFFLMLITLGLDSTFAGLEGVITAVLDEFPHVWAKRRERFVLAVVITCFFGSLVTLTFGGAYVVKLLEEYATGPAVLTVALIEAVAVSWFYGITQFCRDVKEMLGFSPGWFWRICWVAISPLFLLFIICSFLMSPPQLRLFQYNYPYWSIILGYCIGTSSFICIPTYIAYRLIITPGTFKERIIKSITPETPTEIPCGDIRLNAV
T1 sequence (P25103 whole entry): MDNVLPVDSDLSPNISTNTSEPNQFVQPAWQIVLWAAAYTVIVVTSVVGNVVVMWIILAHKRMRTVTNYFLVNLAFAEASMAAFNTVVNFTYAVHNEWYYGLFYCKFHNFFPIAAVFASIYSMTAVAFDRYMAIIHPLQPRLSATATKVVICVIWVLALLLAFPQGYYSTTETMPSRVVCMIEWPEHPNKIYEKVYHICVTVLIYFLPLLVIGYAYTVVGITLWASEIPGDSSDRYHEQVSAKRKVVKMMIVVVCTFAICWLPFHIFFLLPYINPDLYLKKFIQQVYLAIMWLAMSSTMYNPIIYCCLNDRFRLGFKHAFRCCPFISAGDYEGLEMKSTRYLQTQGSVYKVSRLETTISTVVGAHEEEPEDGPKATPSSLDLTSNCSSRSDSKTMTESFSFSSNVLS

IC50 ([1]; Table 1)	IC50 [2, 3]	IC50 ([1]; Table 2)	IC50 [2, 4]	Compound	IC50 [2]
> 300 nM	100 to 300 nM			FC(F)(F)c1cc(COCC2(c3ccccc3)CCNCC2)cc(-c2ccccc2-c2ccccc2)c1	
> 300 nM	> 300 nM			FC(F)(F)c1cc(COCC2(c3ccccc3)CCNCC2)cc(-c2cccc3c2Sc2ccccc2S3)c1	
		> 300 nM	100 to 300 nM	CCCOc1cccc(-c2cc(COCC3(c4ccccc4)CCNCC3)cc(C(F)(F)F)c2)c1	
		> 300 nM	0.01 to 100 nM	Fc1ccc(-c2cc(F)cc(COCC3(c4ccccc4)CCNCC3)c2)cc1	
100 to 300 nM	0.01 to 100 nM			FC(F)(F)c1cc(COCC2(c3ccccc3)CCNCC2)cc(-c2nnn[nH]2)c1	
> 300 nM	100 to 300 nM			FC(F)(F)c1cc(COCC2(c3ccccc3)CCNCC2)cc(-c2ccccc2C(F)(F)F)c1	
		> 300 nM	100 to 300 nM	FC(F)(F)c1cc(COCC2(c3ccccc3)CCNCC2)cc(-c2ccc(C3CCCCC3)cc2)c1	
		> 300 nM	0.01 to 100 nM	FC(F)(F)c1cc(COCC2(c3ccccc3)CCNCC2)cc(-c2ccc(C3CCNCC3)nc2)c1	
		0.01 to 100 nM	0.01 to 100 nM	COc1cc(F)c(-c2cc(COCC3(c4ccccc4)CCNCC3)cc(C(F)(F)F)c2)cc1F	
		0.01 to 100 nM	0.01 to 100 nM	N#Cc1ccc(-c2cc(COCC3(c4cccc(Br)c4)CCNCC3)cc(C(F)(F)F)c2)cc1	
0.01 to 100 nM	0.01 to 100 nM			Cc1ccc(-c2cc(COCC3(c4ccccc4)CCNCC3)cc(C(F)(F)F)c2)cc1	
100 to 300 nM	0.01 to 100 nM			OCc1cccc(-c2cc(COCC3(c4ccccc4)CCNCC3)cc(C(F)(F)F)c2)c1	
		0.01 to 100 nM	0.01 to 100 nM	N#Cc1cc(F)c(-c2cc(COCC3(c4ccccc4)CCNCC3)cc(C(F)(F)F)c2)cc1F	
		0.01 to 100 nM	0.01 to 100 nM	O=C(Nc1ccc(-c2cc(COCC3(c4ccccc4)CCNCC3)cc(C(F)(F)F)c2)cc1)OCc1ccccc1	
		100 to 300 nM	0.01 to 100 nM	CCS(=O)(=O)c1ccc(-c2cc(COCC3(c4ccccc4)CCNCC3)cc(C(F)(F)F)c2)cc1	
0.01 to 100 nM	0.01 to 100 nM			FC(F)(F)c1cc(COCC2(c3ccccc3)CCNCC2)cc(-c2ccc(Cl)cc2Cl)c1	
0.01 to 100 nM	0.01 to 100 nM			Fc1cc(-c2cc(COCC3(c4ccccc4)CCNCC3)cc(C(F)(F)F)c2)c(Cl)cn1	
		0.01 to 100 nM	0.01 to 100 nM	N#Cc1ccc(-c2cc(C#N)cc(COCC3(c4ccccc4)CCNCC3)c2)cc1	
0.01 to 100 nM	0.01 to 100 nM			Fc1cccc(F)c1-c1cc(COCC2(c3ccccc3)CCNCC2)cc(C(F)(F)F)c1	
		> 300 nM	0.01 to 100 nM	N#Cc1ccc(-c2cc(COCC3(c4ccccc4)CCNCC3)cc(C(=O)N3CCCCC3)c2)cc1	
0.01 to 100 nM	0.01 to 100 nM			COc1ccc(-c2cc(COCC3(c4ccccc4)CCNCC3)cc(C(F)(F)F)c2)cc1F	
> 300 nM	100 to 300 nM			COc1ccc(-c2nnn(C)n2)cc1COCC1(c2ccccc2)CCNCC1	

Compound	IC50 ([1]; Table 1)	IC50 [2, 3]	IC50 ([1]; Table 2)	IC50 [2, 4]	IC50 [2]
COc1ccc(-c2cc(COCC3(c4ccccc4)CCN(C)CC3)cc(C(F)(F)F)c2)cc1			0.01 to 100 nM		0.01 to 100 nM
Cc1cc(-c2cc(COCC3(c4ccccc4)CCN(C)CC3)cc(C(F)(F)F)c2)ccc1C#N			0.01 to 100 nM		0.01 to 100 nM
COc1cccc(C2(COCc3cc(-c4ccc(C#N)cc4)cc(C(F)(F)F)c3)CCN(C)CC2)c1			0.01 to 100 nM		0.01 to 100 nM
CN1CCC(COCc2cc(F)cc(-c3ccc(C#N)cc3)c2)(c2ccccc2)CC1			0.01 to 100 nM		0.01 to 100 nM
